From patent US5760041A, “4-aminoquinazoline EGFR Inhibitors” (American Cyanamid Company, priority 1997, dated 1998) come the findings set out here.

One assay concerns SKBR3 cells. As to the kind of experiment: Inhibition of cell growth, [3H]-thymidine incorporation, SKBR3. The conditions noted are these: Homo sapiens, SK-BR-3; 48 to 72 hours with compound; read-out: IC50, SKBR3. Format: cell-based. How it is done:
Representative compounds of this invention were evaluated for their ability to inhibit the growth of the cell lines described below in vitro. The inhibition is quantitated by measuring the decrease in the incorporation of radio-labeled thymidine when the cells are grown in the presence of the inhibitor. A431 and SKBR3 cell lines are obtained from American Type Culture Collection, Rockville, Md. […] NHEK cells are obtained from Clonetics (San Diego, Calif.). Cells were routinely grown in a humidified incubator in 5% CO2 in air. […] Cells were seeded at 10,000 cells/well in 96 well plates in complete media and allowed to grow to log phase. […] After overnight incubation in low serum (or EGF lacking) media, the compounds to be evaluated were added and cells remained in the presence of compounds for 48 to 72 hours. Media with test compound was then removed and complete media was added back. The cells were allowed to grow for 18 hours. This is followed by incubation in [^3 H]thymidine (1mCi/ml in serum/EGF media) for 4 hours. Cells were lysed in 0.5M NaOH for at least 30 min at 37° C. and radioactivity analyzed. The cell growth inhibition data is provided below in TABLE 3. […] The % inhibition of the compound evaluated was determined for at least three different concentrations and the IC50 value evaluated from the dose response curve. […] CPM(control) is in units of counts per minute and is a number expressing the amount of [^3 H]thymidine incorporated onto the DNA when cells are grown in the absence of test compound as measured by liquid scintillation counting.

Another assay deals with NHEK cells. As to the kind of experiment: Inhibition of cell growth, [3H]-thymidine incorporation, NHEK. The conditions noted are these: Homo sapiens, read-out: IC50, NHEK. Format: cell-based. As for the experimental part:
(§1) Representative compounds of this invention were evaluated for their ability to inhibit the growth of the cell lines described below in vitro. The inhibition is quantitated by measuring the decrease in the incorporation of radio-labeled thymidine when the cells are grown in the presence of the inhibitor. A431 and SKBR3 cell lines are obtained from American Type Culture Collection, Rockville, Md. […] NHEK cells are obtained from Clonetics (San Diego, Calif.). Cells were routinely grown in a humidified incubator in 5% CO2 in air.
(§2) Cells were seeded at 10,000 cells/well in 96 well plates in complete media and allowed to grow to log phase. […] After overnight incubation in low serum (or EGF lacking) media, the compounds to be evaluated were added and cells remained in the presence of compounds for 48 to 72 hours. Media with test compound was then removed and complete media was added back. The cells were allowed to grow for 18 hours. This is followed by incubation in [^3 H]thymidine (1mCi/ml in serum/EGF media) for 4 hours. Cells were lysed in 0.5M NaOH for at least 30 min at 37° C. and radioactivity analyzed.
(§3) The cell growth inhibition data is provided below in TABLE 3. […] The % inhibition of the compound evaluated was determined for at least three different concentrations and the IC50 value evaluated from the dose response curve.
(§4) CPM(control) is in units of counts per minute and is a number expressing the amount of [^3 H]thymidine incorporated onto the DNA when cells are grown in the absence of test compound as measured by liquid scintillation counting.

Assay [1] has as its target T1, Epidermal Growth Factor Receptor Kinase (EGF-R) (Homo sapiens, UniProt P00533).
T1 construct: The enzyme was obtained as a membrane extract of A431 cells; (cells); host or cells: A431 cells (membrane extract)
As to the kind of experiment: Inhibition of Epidermal Growth Factor Receptor Kinase (EGF-R), phosphorylation of peptide substrate RR-SRC. Particulars: A431 membrane extract; average of number of tests. The format is biochemical. How it is done: The % inhibition of the test compound was determined for at least three different concentrations and the IC50 value was evaluated from the dose response curve.
The CPM values were corrected for the background counts produced by ATP in the absence of the enzymatic reaction.

A further assay concerns Neu-3T3 cells. Kind of assay: Inhibition of cell growth, [3H]-thymidine incorporation, Neu-3T3. The conditions noted are these: Mus musculus; 48 to 72 hours with compound; read-out: IC50, NEU-3T3. Format: cell-based. As for the experimental part:
as §1, §2, §3, §4

The test system of the next assay is A431 cells. Kind of assay: Inhibition of cell growth, [3H]-thymidine incorporation, A431. The format is cell-based. Particulars: Homo sapiens, A-431, read-out: IC50, A431. As for the experimental part: as §1
Cells were seeded at 10,000 cells/well in 96 well plates in complete media and allowed to grow to log phase. […] After overnight incubation in low serum (or EGF lacking) media, the compounds to be evaluated were added and cells remained in the presence of compounds for 48 to 72 hours. […] Cells were lysed in 0.5M NaOH for at least 30 min at 37° C. and radioactivity analyzed.
as §3, §4

T1 sequence (P00533 25-1210): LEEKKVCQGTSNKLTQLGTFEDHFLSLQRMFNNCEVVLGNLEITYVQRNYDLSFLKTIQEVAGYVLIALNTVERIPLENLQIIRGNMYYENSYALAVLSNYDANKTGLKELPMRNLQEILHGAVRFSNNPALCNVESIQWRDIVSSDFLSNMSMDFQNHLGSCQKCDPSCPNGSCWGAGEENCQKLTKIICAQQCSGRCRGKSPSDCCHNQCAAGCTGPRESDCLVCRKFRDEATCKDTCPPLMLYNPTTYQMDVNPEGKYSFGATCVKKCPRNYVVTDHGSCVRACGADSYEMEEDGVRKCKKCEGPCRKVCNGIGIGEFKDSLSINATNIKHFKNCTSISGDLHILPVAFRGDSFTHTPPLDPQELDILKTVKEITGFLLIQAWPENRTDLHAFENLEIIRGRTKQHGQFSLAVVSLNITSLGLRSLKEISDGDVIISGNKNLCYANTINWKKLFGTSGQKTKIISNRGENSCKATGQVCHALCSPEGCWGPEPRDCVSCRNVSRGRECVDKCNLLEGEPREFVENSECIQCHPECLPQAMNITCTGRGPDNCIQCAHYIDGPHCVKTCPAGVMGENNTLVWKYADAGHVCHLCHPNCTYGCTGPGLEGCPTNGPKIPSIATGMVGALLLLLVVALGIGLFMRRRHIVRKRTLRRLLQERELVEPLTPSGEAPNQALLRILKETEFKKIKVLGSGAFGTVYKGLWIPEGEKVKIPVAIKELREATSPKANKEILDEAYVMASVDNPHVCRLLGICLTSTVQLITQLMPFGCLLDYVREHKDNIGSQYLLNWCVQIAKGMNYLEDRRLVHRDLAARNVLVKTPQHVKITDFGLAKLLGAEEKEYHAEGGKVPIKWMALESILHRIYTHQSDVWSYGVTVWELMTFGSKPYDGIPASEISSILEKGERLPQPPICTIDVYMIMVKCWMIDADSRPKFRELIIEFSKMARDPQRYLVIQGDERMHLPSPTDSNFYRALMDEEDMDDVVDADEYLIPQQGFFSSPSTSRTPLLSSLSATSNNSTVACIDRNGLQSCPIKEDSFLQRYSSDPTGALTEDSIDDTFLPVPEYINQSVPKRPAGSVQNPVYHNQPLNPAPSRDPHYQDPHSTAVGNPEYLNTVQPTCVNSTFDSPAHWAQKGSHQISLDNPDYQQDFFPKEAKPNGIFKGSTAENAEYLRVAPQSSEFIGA
T1 sequence (P01133 971-1023 partner limits assumed): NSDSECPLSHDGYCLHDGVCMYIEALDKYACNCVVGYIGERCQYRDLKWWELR

`CC=CC=CC(=O)Nc1ccc2ncnc(Nc3cccc(Br)c3)c2c1` [Example 11, N-[4-[(3-Bromophenyl)amino]-6-quinazolinyl]-2,4-hexadienamide]: the IC50 is 4 µM in the assay with SKBR3 cells; 850 nM in the assay on NHEK cells; 56 nM in assay [1]; 400 nM in the assay with Neu-3T3 cells; 800 nM with A431 cells.
